Laboratory results from patent US20250270170A1, “2,3-DIMETHOXY-5-METHYL-1,4-BENZOQUINONE ALKYL ALCOHOL DERIVATIVE AND USE THEREOF” (BEIJING ANJIANXI BIO-MEDICAL TECHNOLOGY CO., LTD., priority 2021, published 2025).
Marks after values point to notes of the source that are not given here.

Legend:
[1] = tested on: human non-small cell lung cancer A549 transplanted tumor; assay: Example 9: tumor growth in A549 transplanted tumor model; assay type: in vivo, nude mice
Text: Human non-small cell lung cancer cells A549 were obtained from the Cell Bank of the Type Culture Collection Committee of Chinese Academy of Sciences (CAS, cryopreserved in liquid nitrogen in this assay). […] On D1 of the assay, the A549 cells in the logarithmic growth phase were collected, counted and resuspended in PBS, and the cell concentration was adjusted to 8×10^7 cells/mL. The cells were pipetted with a pipette to disperse them evenly, and the cells were put into a 50-mL centrifuge tube, which was placed in an ice box. A 1-mL syringe was used to draw the cell suspension, which was injected subcutaneously into the axilla of the front right limb of a nude mouse. Each animal was inoculated with 100 μL (8×10^6 cells/mouse) to establish an A549 transplanted tumor model in nude mice. After the inoculation, the animal status and tumor growth were regularly observed. On D18, the tumor diameter was measured using an electronic vernier caliper. The data were input into an Excel spreadsheet to calculate the tumor volume. Tumor-bearing mice in good health and with similar tumor volumes (101 to 156 mm^3) were selected and divided into groups using randomized block method. After the start of the assay, the tumor diameter was measured regularly, the tumor volume was calculated, and the animal body weight was also weighed and recorded. On the last day of the assay, CO2 inhalation anesthesia was used on the animals 1 hour after the administration (R01). Blood was collected through the heart, and a part of the whole blood was added with EDTA-K2 for anticoagulation. The plasma was separated by centrifugation at 4° C. and 1500 g for 10 minutes. The plasma was collected, and stored in a −40° C. to −20° C. freezer (if necessary, it can be used for the determination of the plasma drug concentration). No anticoagulant was added to the other part of the whole blood, and the serum was separated by centrifugation after the blood coagulated, which was used for the detection of blood urea nitrogen. After the blood collection, the tumor tissue was collected, weighed and photographed. Then, the tumor was divided into two parts, quickly cryopreserved by liquid nitrogen, and transferred to a −90° C. to −60° C. freezer for storage. […] [table]

[2] = Example 3: body weight of NCI-N87 tumor-bearing nude mice; assay type: in vivo, BALB/c nude mice; details: for Mean animal body weight / body weight loss rate: DDP 4/4/5/5 mg/kg i.p. QW×4
Method: The NCI-N87 cells in the logarithmic growth phase were collected, counted and resuspended in a serum-free RPMI-1640 medium, and the cell concentration was adjusted to 5×10^7 cells/mL. The cells were pipetted with a pipette to disperse them evenly, and the cells were put into a 50-mL centrifuge tube, which was placed in an ice box. A 1-mL syringe was used to draw the cell suspension, which was injected subcutaneously into the axilla of the front right limb of a nude mouse. Each animal was inoculated with 100 μL (5×10^6 cells/mouse) to establish an NCI-N87 transplanted tumor model in nude mice. After the inoculation, the animal status and tumor growth were regularly observed, and the tumor diameter was measured using an electronic vernier caliper. The data were input into an Excel spreadsheet to calculate the tumor volume. When the tumor volume reached 100 to 300 mm^3, 72 animals in good health and with similar tumor volumes were selected and divided into 9 groups (n=8) using randomized block method. The day of grouping was regarded as the first day of the assay (D1). After the start of the assay, the tumor diameter was measured twice a week, the tumor volume was calculated, and the animal body weight was also weighed and recorded. [table] The calculation formula of animal weight loss rate is: wherein BWt represents the animal body weight measured each time during the administration period; BWinitial represents the animal body weight when being grouped for administration. The assay data were calculated and processed statistically using Microsoft Office Excel 2007 software. Unless otherwise specified, the data were expressed as mean±standard error (Mean±SE), and t-test was used for comparison between two groups.

[3] = Example 9: serum urea nitrogen (BUN) at the end of the assay; assay type: in vivo, nude mice; details: serum, end of assay, A549 model
Method: On the last day of the assay, CO2 inhalation anesthesia was used on the animals 1 hour after the administration (R01). Blood was collected through the heart, and a part of the whole blood was added with EDTA-K2 for anticoagulation. The plasma was separated by centrifugation at 4° C. and 1500 g for 10 minutes. The plasma was collected, and stored in a −40° C. to −20° C. freezer (if necessary, it can be used for the determination of the plasma drug concentration). No anticoagulant was added to the other part of the whole blood, and the serum was separated by centrifugation after the blood coagulated, which was used for the detection of blood urea nitrogen. After the blood collection, the tumor tissue was collected, weighed and photographed. Then, the tumor was divided into two parts, quickly cryopreserved by liquid nitrogen, and transferred to a −90° C. to −60° C. freezer for storage. Bilateral kidneys were collected and fixed in 10% formalin.

[4] = D21, DDP 5/7/7/7 mg/kg i.p. QW×4
[5] = D25, DDP 5/7/7/7 mg/kg i.p. QW×4
[6] = D28, DDP 5/7/7/7 mg/kg i.p. QW×4
[7] = D32, DDP 5/7/7/7 mg/kg i.p. QW×4
[8] = D35, DDP 5/7/7/7 mg/kg i.p. QW×4
[9] = D39, DDP 5/7/7/7 mg/kg i.p. QW×4
[10] = D42, DDP 5/7/7/7 mg/kg i.p. QW×4
[11] = D46, DDP 5/7/7/7 mg/kg i.p. QW×4

## N.N.[Cl][Pt][Cl] [DDP, cisplatin]
[1]; D18, DDP 4 mg/kg i.p. QW×4
  Mean tumor volume: 127 ± 6 mm^3
[1]; D18, DDP 5/7/7/7 mg/kg i.p. QW×4
  Mean tumor volume: 130 ± 5 mm^3
[1]; D21, DDP 4 mg/kg i.p. QW×4
  Mean tumor volume: 210 ± 10 mm^3
  tumor growth inhibition rate (TGI): (−1.0%)
[1]; [4]
  Mean tumor volume: 208 ± 11 mm^3
  tumor growth inhibition rate (TGI): (4.7%)
[1]; D25, DDP 4 mg/kg i.p. QW×4
  Mean tumor volume: 297 ± 20** mm^3
  tumor growth inhibition rate (TGI): (37%)
[1]; [5]
  Mean tumor volume: 308 ± 23** mm^3
  tumor growth inhibition rate (TGI): (34%)
[1]; D28, DDP 4 mg/kg i.p. QW×4
  Mean tumor volume: 418 ± 28** mm^3
  tumor growth inhibition rate (TGI): (29%)
[1]; [6]
  Mean tumor volume: 428 ± 30** mm^3
  tumor growth inhibition rate (TGI): (27%)
[1]; D32, DDP 4 mg/kg i.p. QW×4
  Mean tumor volume: 561 ± 35** mm^3
  tumor growth inhibition rate (TGI): (27%)
[1]; [7]
  Mean tumor volume: 562 ± 41** mm^3
  tumor growth inhibition rate (TGI): (28%)
[1]; D35, DDP 4 mg/kg i.p. QW×4
  Mean tumor volume: 670 ± 56** mm^3
  tumor growth inhibition rate (TGI): (26%)
[1]; [8]
  Mean tumor volume: 696 ± 52* mm^3
  tumor growth inhibition rate (TGI): (22%)
[1]; D39, DDP 4 mg/kg i.p. QW×4
  Mean tumor volume: 914 ± 89** mm^3
  tumor growth inhibition rate (TGI): (30%)
[1]; [9]
  Mean tumor volume: 892 ± 86** mm^3
  tumor growth inhibition rate (TGI): (33%)
[1]; D42, DDP 4 mg/kg i.p. QW×4
  Mean tumor volume: 1110 ± 119 mm^3
  tumor growth inhibition rate (TGI): (23%)
[1]; [10]
  Mean tumor volume: 1099 ± 85* mm^3
  tumor growth inhibition rate (TGI): (24%)
[1]; D46, DDP 4 mg/kg i.p. QW×4
  Mean tumor volume: 1333 ± 176 mm^3
  tumor growth inhibition rate (TGI): (20%)
[1]; [11]
  Mean tumor volume: 1236 ± 32* mm^3
  tumor growth inhibition rate (TGI): (27%)
[1]; DDP 4 or 5/7/7/7 mg/kg QW, R01 formulation 18 or 36 mg/kg BID, combinations 18+5/7/7/7 and 36+4
  effect on growth of the A549 transplanted tumor (summary): no significant effect
[2]; D13
  Mean animal body weight: 18.5 ± 0.4 g
[2]; D16
  Mean animal body weight: 17.3 ± 0.4 g
  body weight loss rate: (6.2%)
[2]; D20
  Mean animal body weight: 17.6 ± 0.4 g
  body weight loss rate: (4.8%)
[2]; D23
  Mean animal body weight: 17.5 ± 0.4 g
  body weight loss rate: (5.1%)
[2]; D27
  Mean animal body weight: 18.3 ± 0.6 g
  body weight loss rate: (1.1%)
[2]; D30
  Mean animal body weight: 17.6 ± 0.4 g
  body weight loss rate: (4.7%)
[2]; D34
  Mean animal body weight: 17.7 ± 0.4 g
  body weight loss rate: (4.3%)
[2]; D37
  Mean animal body weight: 17.2 ± 0.4 g
  body weight loss rate: (6.8%)
[2]; D44
  Mean animal body weight: 16.8 ± 0.4 g
  body weight loss rate: (8.9%)
[2]; NCI-N87 tumor-bearing nude mice, summary of Table 6
  effect on body weight compared with blank control group: decreased significantly
[3]; group B, DDP 4 mg/kg i.p. QW × 4
  BUN (mmol/L) Mean ± SE: 21.17 ± 1.43 mmol/L
[3]; group C, DDP 5/7/7/7 mg/kg i.p. QW × 4
  BUN (mmol/L) Mean ± SE: 28.56 ± 1.79 mmol/L
